Experiments:
[1] = tested on: A. baumannii ATCC 17978 (SEN) and A. baumannii ATCC BAA-1605 (MDR); assay: microbe, parasite or virus in culture; type: cell-based, Acinetobacter baumannii
Procedure, shortened: (§1)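 Cells at 5 × 10^5 per mL in cation-adjusted MHB 2 across 11 to 16-step dilutions, 2 replicates. Relative MIC expressed as MICevolved/MICancestor.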

[2] = tested on: P. aeruginosa ATCC BAA-3107 (SEN) and P. aeruginosa LESB58 (MDR); assay: microbe, parasite or virus in culture; type: cell-based, Pseudomonas aeruginosa
Procedure, shortened: as §1

[3] = tested on: K. pneumoniae ATCC 10031 (SEN) and K. pneumoniae ATCC 700603 (MDR); assay: Adaptive laboratory evolution (ALE), relative MIC of evolved lines; type: cell-based, Klebsiella pneumoniae
Procedure, shortened: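 Ten parallel populations per antibiotic–ancestor pair were evolved in MHB at 37 °C, starting near 50% growth-inhibiting drug. Every 72 h they were passaged into 0.5–2.5× increasing concentrations, keeping the highest-drug well with OD600 > 0.2.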

Substance polymyxin-B has an MIC of ancestor ([1]; Acinetobacter baumannii ATCC 17978 (AB-SEN), ancestor strain, sheet fig 2a) of 1 µg/mL, an MIC of ancestor ([1]; Acinetobacter baumannii ATCC BAA 1605 (AB-MDR), ancestor) of 1 µg/mL and an MIC of ancestor ([1]; Acinetobacter baumannii ATCC BAA 1605 (AB-MDR), ancestor strain, sheet fig 2a) of 1 µg/mL. The MIC of ancestor ([1]; ancestor AB-SEN (Acinetobacter baumannii ATCC 17978)) was 1 µg/mL, the MIC of ancestor ([2]; P. aeruginosa ATCC BAA 3107 (PA-SEN), ancestor strain, sheet fig 2a) was 1 µg/mL and the MIC of ancestor ([2]; P. aeruginosa LESB 58 (PA-MDR), ancestor strain, sheet fig 2a) was 2 µg/mL. For the same substance, the MIC of ancestor ([2]; Pseudomonas aeruginosa LESB 58 (PA-MDR), ancestor) was 2 µg/mL, the MIC of ancestor ([2]; ancestor PA-MDR (Pseudomonas aeruginosa LESB 58)) was 2 µg/mL and the MIC of ancestor ([2]; ancestor PA-SEN (Pseudomonas aeruginosa ATCC BAA 3107)) was 1 µg/mL. The MIC of evolved line ([3]; KP-MDR ATCC 700603, evolved line 1) was 512 µg/mL, the MIC of evolved line ([3]; KP-MDR ATCC 700603, evolved line 2) was 512 µg/mL and the MIC of evolved line ([3]; KP-MDR ATCC 700603, evolved line 3) was 256 µg/mL. For the same substance, the MIC of evolved line ([3]; KP-MDR ATCC 700603, evolved line 4) was 256 µg/mL, the MIC of evolved line ([3]; KP-MDR ATCC 700603, evolved line 5) was 256 µg/mL and the MIC of evolved line ([3]; KP-MDR ATCC 700603, evolved line 6) was 256 µg/mL. The MIC of evolved line ([3]; KP-MDR ATCC 700603, evolved line 7) was 256 µg/mL, the MIC of evolved line ([3]; KP-MDR ATCC 700603, evolved line 8) was 512 µg/mL and the MIC of evolved line ([3]; KP-MDR ATCC 700603, evolved line 9) was 256 µg/mL. For the same substance, the MIC of evolved line ([3]; KP-MDR ATCC 700603, evolved line 10) was 256 µg/mL, the MIC of evolved line ([3]; KP-SEN (K. pneumoniae ATCC 10031), evolved line 1 of the given antibiotic) was 512 µg/mL and the MIC of evolved line ([3]; KP-SEN (K. pneumoniae ATCC 10031), evolved line 2 of the given antibiotic) was 1020 µg/mL. It also gave an MIC of evolved line ([3]; KP-SEN (K. pneumoniae ATCC 10031), evolved line 3 of the given antibiotic) of 1020 µg/mL, an MIC of evolved line ([3]; KP-SEN (K. pneumoniae ATCC 10031), evolved line 4 of the given antibiotic) of 256 µg/mL and an MIC of evolved line ([3]; KP-SEN (K. pneumoniae ATCC 10031), evolved line 5 of the given antibiotic) of 1020 µg/mL. For the same substance, the MIC of evolved line ([3]; KP-SEN (K. pneumoniae ATCC 10031), evolved line 7 of the given antibiotic) was 256 µg/mL, the MIC of evolved line ([3]; KP-SEN (K. pneumoniae ATCC 10031), evolved line 8 of the given antibiotic) was 256 µg/mL and the MIC of evolved line ([3]; KP-SEN (K. pneumoniae ATCC 10031), evolved line 9 of the given antibiotic) was 1020 µg/mL. For the same substance, the MIC of evolved line ([3]; KP-SEN (K. pneumoniae ATCC 10031), evolved line 10 of the given antibiotic) was 32 µg/mL.

— publication PMC11845477, “Exploring the principles behind antibiotics with limited resistance” (Nature Communications, 2025)
